# From PMC6222357, “Liquid Chromatography-Tandem Mass Spectrometry Simultaneous Determination and Pharmacokinetic Study of Fourteen Alkaloid Components in Dog Plasma after Oral Administration of Corydalis bungeana Turcz Extract” (Molecules : A Journal of Synthetic Chemistry and Natural …, 2018)
# Like-named read-outs stand apart in the source and are kept apart here.
# Tests used:
# [1] = Pharmacokinetic study in beagle dogs after oral administration of C. bungeana extract (UHPLC-MS/MS of plasma); settings: male, beagle, dog, plasma, po, 0.12 g/kg
# Description: (§2) The developed UHPLC-MS/MS method was employed to determine the pharmacokinetics of the fourteen components in C. bungeana after a single oral administration of 0.12 g/kg (equivalent to 1180.8 µg/kg A, 100.8 µg/kg B, 172.8 µg/kg C, 194.4 µg/kg D, 147.6 µg/kg E, 291.6 µg/kg F, 7.2 µg/kg G, 64.8 µg/kg H, 10.8 µg/kg I, 435.6 µg/kg J, 7.2 µg/kg K, 2851.2 µg/kg L, 694.8 µg/kg M, 928.8µg/kg N) to six beagle dogs. […] According to the Meeh-Rubn method, we established a final oral dosage of 0.12 g/kg in dogs. The plasma concentrations of the fourteen components at each time point were detected and the data gained from six beagle dogs were averaged.
# (§3) Before the experiment, the beagle dogs were fasted for 12 h but given water during the research period. Blood (300 µL) was collected from the forelimb vein plexus at a few specific time points (0.083, 0.25, 0.5, 0.75 and 1, 2, 3, 4, 6, 8, 12, 24 h) after the oral administration of the extract of C. bungeana (0.12 g/kg). After centrifugation at 13,000 rpm for 10 min, the plasma was collected immediately and maintained at −80 °C until sample analysis.
# (§4) Using a liquid-liquid extraction method, 100 µL of methanol and 50 µL of IS (bifendate) were added to a beagle dog plasma sample (100 µL) followed by vortex for 30 s. Then 3 mL of aether was accurately added and the mixture was vortexed for 60 s. After this step, the samples were put into a centrifuge (XiangYi Technologies, Changsha, Hunan, China). The organic supernatant was pipetted into clean glass tubes individually after centrifugation 3800 rpm for 6 min. The upper organic layer was removed and evaporated to dryness at 40 °C under a stream of nitrogen. The residue was then redissolved with 100 µL of mobile phase (28% acetonitrile), vortexed for 30 s and filtered by a 0.22 µm membrane. A 10 µL aliquot of the solution was injected into the UHPLC-MS/MS system for analysis.
# (§5) Concentrations of fourteen alkaloids in beagle dog blood were calculated employing the Excel program (Microsoft Corp., Redmond, WA, USA). Pharmacokinetic parameters were calculated using non-compartmental methods. The elimination rate constant (Ke) was calculated employing the linear regression of the terminal points in a semi-log plot of the plasma concentration against time. The elimination half-life (t1/2) was calculated using the formula. t1/2 = 0.693/Ke(1)
# (§6) The area under the blood concentration versus time curve up to the last quantifiable time point (AUC0→t) was calculated by the linear trapezoidal rule. The area under the plasma concentration –time curve to time infinity (AUC0→∞) was calculated as follows: AUC0→∞ = AUC0→t + Ct/Ke(2)
# (§7) The maximum observed blood concentration (Cmax) and the time to reach maximum observed blood concentration (Tmax) were obtained directly from the concentration-time curve.
# [2] = Room temperature stability of stock solution; type: physicochemical; settings: 25 °C for 24 h, n = 6
# Description: (§1) The stability of the fourteen analytes in beagle dogs investigated by analyzing QC samples of each analyte at three QC levels (LQC, MQC and HQC) and each level contained six replicates. The short-term stability was assessed during storage for 4 h at ambient temperature. The long-term stability was determined after the QC samples had been stored for 2 weeks at −80 °C. The freeze-thaw stability was determined after three freeze at −80 °C and thaw cycles. and post-preparative stability was during storage for 12 h after sample preparation at 4 °C. The room temperature stability for stock solution was determined after storing the sample at 25 °C for 24 h. A series of concentrations of stability testing QC samples was gained by the calibration curve which was established from freshly prepared standard samples.
# [3] = Stability of the analytes in beagle plasma QC samples under different storage conditions; type: physicochemical, beagle dog; settings: n = 6; for Stability (% RE) Long-Term: 2 weeks at −80 °C; for Stability (% RE) Short-Term: 4 h at ambient temperature; for Stability (% RE) Freeze-Thaw: three freeze (−80 °C)-thaw cycles; for Stability (% RE) Post-Preparative: 12 h after sample preparation at 4 °C
# Description: As illustrated in Table 4. The stability of QC samples at three evaluated concentrations contained low, medium and high under different stored conditions was assessed on the basis of peak areas in comparison with freshly prepared QC sample.
# as §1
# [4] = parameters: method as in PMID 26805956; settings: rat plasma, single oral administration of C. bungeana extract; cited from earlier work
# in vivo = settings: male, beagle, dog, po, 0.12 g/kg
# Description: as §2, §3, §4, §5, §6, §7
AUC(0-inf) [1] [ng·h/mL],AUC(0-t) [1] [ng·h/mL],Cmax [1] [ng/mL],Tmax [1] [h],half-life [1] [h],Stability (% RE) Post-Preparative ([3]; high QC) [% RE],Stability (% RE) Post-Preparative ([3]; low QC) [% RE],Stability (% RE) Post-Preparative ([3]; medium QC) [% RE],SMILES,Stability (% RE) Room Temperature for Stock-Solution ([2]; high QC level) [% RE],Stability (% RE) Room Temperature for Stock-Solution ([2]; low QC level) [% RE],Stability (% RE) Room Temperature for Stock-Solution ([2]; medium QC level) [% RE],Stability (% RE) Long-Term ([3]; high QC in beagle plasma) [% RE],Stability (% RE) Short-Term ([3]; high QC in beagle plasma) [% RE],Stability (% RE) Freeze-Thaw ([3]; high QC in beagle plasma) [% RE],Stability (% RE) Long-Term ([3]; low QC in beagle plasma) [% RE],Stability (% RE) Short-Term ([3]; low QC in beagle plasma) [% RE],Stability (% RE) Freeze-Thaw ([3]; low QC in beagle plasma) [% RE],Stability (% RE) Long-Term ([3]; medium QC in beagle plasma) [% RE],Stability (% RE) Short-Term ([3]; medium QC in beagle plasma) [% RE],Stability (% RE) Freeze-Thaw ([3]; medium QC in beagle plasma) [% RE],other results
747 ± 95.2,682 ± 74.8,237 ± 13.7,0.96 ± 0.1,6.34 ± 1.21,−6.09,12.10,11.32,"COc1ccc(CCNC(=O)/C=C/c2ccc(O)c(O)c2)cc1 [Z23, 7′-(3′,4′-dihydroxyphenyl)-N-[(4-methoxyphenyl)-ethyl]propena-mide]",2.30,3.65,1.64,9.00,10.85,12.43,−8.16,10.52,5.35,9.86,9.94,12.92,Tmax [4]: 3.71 h
,,,,,,,,"c1c2c(cc3c1OCO3)-c1cc3ccc4c(c3c[n+]1CC2)OCO4 [Coptisine, coptisine]",,,,13.69,7.57,12.83,5.48,10.66,10.21,6.73,−3.05,8.93,AUC(0-inf) (in vivo): 6030 ± 194 ng·h/mL; AUC(0-t) (in vivo): 5960 ± 205 ng·h/mL; Cmax (in vivo): 2260 ± 256 ng/mL; Tmax (in vivo): 0.92 ± 0.13 h; half-life (in vivo): 2.48 ± 0.33 h
1080 ± 136,1030 ± 106,434 ± 73.9,0.88 ± 0.13,4.92 ± 1.49,10.57,1.65,11.35,"CN1CCc2cc3c(cc2C(=O)Cc2ccc4c(c2C1)OCO4)OCO3 [Protopine, protopine]",,,,13.11,12.18,10.26,−5.39,5.52,3.72,7.93,8.75,4.17,Tmax [4]: 1.96 h

SMILES,AUC(0-inf) [1] [ng·h/mL],AUC(0-t) [1] [ng·h/mL],Cmax [1] [ng/mL],Tmax [1] [h],half-life [1] [h],Stability (% RE) Post-Preparative ([3]; high QC) [% RE],Stability (% RE) Post-Preparative ([3]; low QC) [% RE],Stability (% RE) Post-Preparative ([3]; medium QC) [% RE],Stability (% RE) Room Temperature for Stock-Solution ([2]; high QC level) [% RE],Stability (% RE) Room Temperature for Stock-Solution ([2]; low QC level) [% RE],Stability (% RE) Room Temperature for Stock-Solution ([2]; medium QC level) [% RE],Stability (% RE) Long-Term ([3]; high QC in beagle plasma) [% RE],Stability (% RE) Short-Term ([3]; high QC in beagle plasma) [% RE],Stability (% RE) Freeze-Thaw ([3]; high QC in beagle plasma) [% RE],Stability (% RE) Long-Term ([3]; low QC in beagle plasma) [% RE],Stability (% RE) Short-Term ([3]; low QC in beagle plasma) [% RE],Stability (% RE) Freeze-Thaw ([3]; low QC in beagle plasma) [% RE],Stability (% RE) Long-Term ([3]; medium QC in beagle plasma) [% RE],Stability (% RE) Short-Term ([3]; medium QC in beagle plasma) [% RE],Stability (% RE) Freeze-Thaw ([3]; medium QC in beagle plasma) [% RE],other results
"C[n+]1cc2c3c(ccc2c2ccc4cc5c(cc4c21)OCO5)OCO3 [Sanguinarine, sanguinarine]",,,,,,10.40,7.77,−2.41,−4.02,2.48,3.20,11.08,9.29,12.22,13.35,12.41,11.45,7.46,−5.50,8.78,AUC(0-inf) (in vivo): 1350 ± 109 ng·h/mL; AUC(0-t) (in vivo): 1260 ± 107 ng·h/mL; Cmax (in vivo): 533 ± 29.1 ng/mL; Tmax (in vivo): 0.96 ± 0.1 h; half-life (in vivo): 5.63 ± 1.36 h
